{
  "source": "paper PMC4932848",
  "about": "(Biochemistry, 2012)",
  "target": "T1, hUXS (human UDP-α-D-xylose synthase) (Homo sapiens, UniProt Q8NBZ7)",
  "T1 sequence (Q8NBZ7 85-420)": "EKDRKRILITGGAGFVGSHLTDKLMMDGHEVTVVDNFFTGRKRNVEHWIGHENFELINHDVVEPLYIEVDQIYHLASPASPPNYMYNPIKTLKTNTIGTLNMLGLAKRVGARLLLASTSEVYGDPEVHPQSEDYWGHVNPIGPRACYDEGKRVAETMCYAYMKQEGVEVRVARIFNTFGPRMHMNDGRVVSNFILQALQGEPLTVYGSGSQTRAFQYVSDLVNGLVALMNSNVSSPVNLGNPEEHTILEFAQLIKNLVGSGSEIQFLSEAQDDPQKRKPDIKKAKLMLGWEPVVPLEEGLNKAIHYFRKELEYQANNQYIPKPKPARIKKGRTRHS",
  "assay": "X-ray crystal structure, […] Å",
  "type": "binding",
  "conditions": "copurified NAD+ bound, open conformation, no nucleotide sugar",
  "data": [
    {"smiles": "NC(=O)c1ccc[n+]([C@@H]2O[C@H](COP(=O)(O)OP(=O)(O)OC[C@H]3O[C@@H](n4cnc5c(N)ncnc54)[C@H](O)[C@@H]3O)[C@@H](O)[C@H]2O)c1", "note": "[NAD^+]", "values": [
      {"measurement": "X-ray crystal structure, 2.5 Å", "value": "Recombinant hUXS crystallizes with the copurified NAD^+ cofactor bound"}
    ]}
  ]
}
